One assay deals with S. marcescens. Conditions: cited from earlier work.
The subject of a further assay is Achromobacter butyri. The conditions noted are these: cited from earlier work.
A further assay deals with powdery mildew fungus. As to the kind of experiment: Induced resistance of wheat to powdery mildew fungus infection. The format is in vivo. The method, then: 2-amino-3-methylhexanoic acid was dissolved in distilled water and diluted with distilled water into solutions of 1 nM, 10 nM, 100 nM, 1,000 nM and 10,000 nM by gradient, and blank control was additionally set. Wheat seeds were germinated, planted in a sterilized soil culture pot and cultured in a greenhouse at 23(±1)° C. with light for 12 h. When the seedlings grew to the stage of one leaf and one bud, the stems and leaves of the wheat seedlings were sprayed with the 2-amino-3-methylhexanoic acid solutions of the above concentrations. The treatment was repeated once after 24 h and conducted twice in total. After 24 h, fresh wheat powdery mildew spores were evenly scattered on the wheat leaves in three pots, with 20 plants per pot. After 10 days, the disease grade of wheat treated at each concentration was investigated. The disease degree was recorded according to the wheat powdery mildew grading standard in the Guidelines for the Field Efficacy Trials of Pesticides (I), and the disease index and relative immune effect were calculated by a method the same as that for calculating the disease index and relative immune effect of tomato spotted wilt. At the same time, the middle segment of the last but one leaf of wheat was taken and the distribution of mycelia on the wheat leaves was observed by referring to Wolf and Fric's rapid staining method of powdery mildew. Grading standard of wheat powdery mildew (per leaf): • Grade 1: The diseased spot area accounts for 5% or less of the whole leaf area. • Grade 3: The diseased spot area accounts for 6-15% of the whole leaf area. • Grade 5: The diseased spot area accounts for 16-25% of the whole leaf area. • Grade 7: The diseased spot area accounts for 26-50% of the whole leaf area. • Grade 9: The diseased spot area accounts for 50% or more of the whole leaf area.

The test system of assay [1] is tomato spotted wilt virus. As to the kind of experiment: Induced resistance of tobacco to tomato spotted wilt virus infection. The format is in vivo. Conditions: for Relative immune effect / Disease index: tobacco; for Content of virus protein: tobacco leaves, 3 days, Western blot, relative. The method, then:
Tomato spotted wilt virus was obtained from Yunnan Province, China. The initial virus source was stored in a refrigerator at −80° C. Nicotiana benthamiana leaves were inoculated with the virus by mechanical inoculation to activate the virus. Viral plasmids were extracted and transformed by competent cells of Escherichia coli. The competent cells were spread on a resistant plate and cultured. Single colonies were selected for PCR screening. Positive colonies were selected for sequencing and subsequent plasmid extraction. Plasmids with normal sequencing were added to competent cells of Agrobacterium, and the Agrobacterium was transformed by electroporation. A solution of the transformed Agrobacterium was spread on the correspondingly resistant screening plate, and cultured at 28° C. (±1) for 48 h. Single colonies of the Agrobacterium on the transformation plate were selected, placed in 5 mL of correspondingly resistant LB medium, and cultured overnight at 28° C. and 180 rpm. Bacterial cells were collected by 2 min of centrifugation at 6,000 rpm, and suspended with an Agrobacterium treatment buffer solution (10 mM MgCl2, 10 mM MES, 10 μM Acetosyringone) until the OD600 value of the suspension was 0.5, and the suspension was treated at 28° C. for 3 h in dark for use.
2-amino-3-methylhexanoic acid was dissolved in distilled water and then diluted with distilled water by gradient into solutions of 0 nM, 0.5 nM, 1 nM and 10 nM. Nicotiana benthamiana seeds were sowed in a small pot, and cultured at 22 (±1)° C., 16 h/8 h light for 5 weeks. Healthy tobacco plants (preferably with 8-10 leaves) were selected and treated with the 2-amino-3-methylhexanoic acid solutions of the above concentrations to conduct spray treatment on the stems and leaves. The treatment was repeated once after 24 h and conducted twice in total. After 24 h, the Agrobacterium solution with a uniform concentration was extracted using a 1 mL syringe, the injection port of the syringe was pressed directly on a small hole on the back of a tobacco leaf, and the bacterial solution was slowly pushed to soak the whole leaf. The soaked tobacco was moved to an environment of 22 (±1)° C. and cultured under 16 h/8 h light. 3 days later, microscopic observation was conducted. At the same time, samples were taken. The gray scale of protein bands was analyzed by Western blot combined with ImageJ software, and the relative protein content of the virus in the leaves was determined. The incidence of tobacco leaves was observed 15 days later, and the disease indexes were recorded according to the Grade and Investigation Method of Tobacco Diseases and Insect Pests (GB/T23222-2008) using a formula as follows: […]
Grading standard of tomato spotted wilt virus infection (grading and investigation were conducted per plant): • Grade 0: The whole plant is disease free. • Grade 1: Heart leaves have clear veins or are slightly mottled, and the diseased plant is not obviously dwarfed. • Grade 3: One-third of leaves are mottled without deformation, or the diseased plant is dwarfed to three quarters or more of a normal plant in height. • Grade 5: One-third to one-half of leaves are mottled, or a few leaves are deformed, or the main veins become black, or the plant is dwarfed to two-thirds to three-quarters of a normal plant in height. • Grade 7: One-half to two-thirds of leaves are mottled or deformed, or a few main and lateral veins become necrotic, or the plant is dwarfed to one-half to two-thirds of a normal plant in height. • Grade 9: The leaves of the whole plant are mottled, seriously deformed or necrotic, or the diseased plant is dwarfed to […] of a normal plant in height.
For orientation: A western blot detects proteins with antibodies after separation by electrophoresis.

Setting [2] is: concentration greater than 1,000 nM, susceptible wheat variety.
[3] abbreviates: each concentration in range 0.5-10 nM.

As to `CCCC(C)C(N)C(=O)O` (stereo not drawn) [2-amino-3-methylhexanoic acid], the Inhibitory effect result in the assay on S. marcescens is “no inhibitory effect”; in the assay on Achromobacter butyri, “slight inhibitory effect”. Besides, the Relative immune effect is 3.5% in the assay with powdery mildew fungus (1 nM, wheat); 15.56% with powdery mildew fungus (10 nM, wheat); 27.63% with powdery mildew fungus (100 nM, wheat); 55.06% with powdery mildew fungus (1,000 nM, wheat); 65.37% in the assay on powdery mildew fungus (10,000 nM, wheat); “more than 50%” in the assay on powdery mildew fungus (setting [2]). For the same compound, the Relative immune effect is given as 59.06% in assay [1] (0.5 nM), 52.36% in assay [1] (1 nM), 22.05% in assay [1] (10 nM) and not below 20% in assay [1] (setting [3]). Moreover, the Disease index result in the assay on powdery mildew fungus (setting [2]) was “lower than 50”; in assay [1] (1 nM, 15 days after inoculation), 44.81 ± 3.90c; in assay [1] (10 nM, 15 days after inoculation), 73.33 ± 2.22b; in assay [1] (setting [3]), “lower than 75”. Also, the “Content of virus protein” value in assay [1] (1 nM) is 0.33 ± 0.001c; in assay [1] (10 nM), 0.44 ± 0.007b.

Values taken from patent US20240057598A1, “USE OF 2-AMINO-3-METHYLHEXANOIC ACID AS PLANT IMMUNITY INDUCER” (NANJING AGRICULTURAL UNIVERSITY, priority 2020, published 2024).
